SMILES strings stand for the structures.

As usually defined, the melting point is the temperature of the solid-liquid transition.

Take `Nc1ncc(-c2noc(-c3cnn4c(C(F)(F)F)cc(-c5ccc(Cl)cc5)nc34)n2)cn1`: the melting point stood at 268 °C. Turning to `CC(C(=O)O)c1ccc2oc(-c3cccnc3)nc2c1` (stereo not given), the melting point fell in the range of 197 to 200 °C. The figure for `CCc1ccc2c(c1)C(C(=O)O)c1ccccc1CO2` (stereo not given) is 154 to 155 °C; for `N#Cc1ccc2[nH]cc(C3CCC4(CC3)OCCO4)c2c1` it is 153 to 155 °C.

`O=C(Nc1ccc(Cl)cc1)Nn1cnc2c(O)cccc2c1=O` returned a melting point of 266 to 268 °C. The figure for `CCOC(=O)c1c(OC(C)C)c(Br)c(Br)n1Cc1ccccc1` is 46 to 48 °C; for `COC(=O)c1cc(OCc2ccc3ccccc3n2)n(C(C)C)n1` it is 106 to 107 °C. The compound `COCNC(=O)NC1CCCc2ccccc21` (stereo not given) gave a melting point of 124 to 128 °C.

In the case of `N#Cc1c(-c2cc3ccccc3s2)nn(-c2ccccc2)c1N`, the melting point was 260 to 262 °C.

For `CNc1ncnc2c1ncn2C1OC(CO)C(OC)C1(C)O` (stereo not given), the melting point stood at 165 °C. The figure for `CCC1=C(C)CN(C(=O)NC2COc3cc(OC)c(S(=O)(=O)NC(=O)NC)cc3C2)C1=O` (stereo not given) is 245 to 246 °C; for `CCOC(=O)c1c(C)nn(-c2ccccc2[N+](=O)[O-])c1C` it is 128 to 130 °C. Under `Nc1c2c(nc3ccccc13)CCCC2N1CCC(c2ccccc2)CC1` (stereo not given) stands 189 to 190 °C; under `CCS(=O)(=O)c1cccc(-c2nc(=O)c3ccccc3s2)n1`, 202 to 203 °C.

The compound `CNC(=O)Nc1cc(CNc2ncccc2C(=O)Nc2ccc3cn(C)nc3c2)ccn1` registered a melting point of 205 to 207 °C. Under `CS(=O)(=O)OCCCCC1C(=O)Nc2cc(F)ccc21` (stereo not given) stands 106 to 108 °C. In turn, `CC(C)CC(=O)NC(=O)c1nnn(Cc2ccccc2)c1N` registered a melting point of 138 to 150 °C.

With `NS(=O)(=O)c1ccc(-n2nc(CCCNC(=O)Nc3cccc(C(F)(F)F)c3)cc2-c2ccccc2)cc1`, the melting point came out at 176 °C.

For `CCOC(=O)COc1ccc(-c2ccc(Cl)c(C(=O)NCC34CC5CC(CC(C5)C3)C4)c2)cc1`, the melting point was 136 to 140 °C. Under `Nc1cccc(Cn2c(-c3ccc(NC(=O)c4cccc(Br)c4)cc3)ccc2-c2ccccc2Cl)n1` stands 116 to 122 °C; under `COc1ccccc1NCN1CCOC1=O`, 95.5 to 98 °C. Under `COc1ccc(-n2nnc(-c3ccc(Cl)c(Cl)c3)c2N)cc1` stands 190 to 191 °C; under `CC(C)c1cc(Cl)nc(C(C)C)c1N`, 53 to 56 °C. The figure for `CC(=O)c1c(F)c(F)c(OCCOc2ccc3ccccc3c2)c(F)c1F` is 114 to 115 °C; for `Cc1cc(Br)cc(C(=O)O)c1N` it is 245 °C; for `CC1NC(=O)NN=C1c1ccc(S(N)(=O)=O)cc1` (stereo not given) it is 259 to 264 °C. On to `CCOC(=O)c1ccccc1COc1ccc(C=O)cc1`, for which the melting point is 60 to 62 °C. `Cc1nc(C(=O)N(C)C)c2n1-c1ccc(Cl)cc1C(c1ccccc1)=NC2` had a melting point of 173 to 175 °C.

`O=CNC(O)C(Cl)(Cl)CCl` (stereo not given): the melting point is 105 to 109 °C. The figure for `CN(C)Cc1cccc(OCCCNc2nc(N=Cc3ccncc3)nn2C)c1` is 127 to 128 °C; for `COc1ccccc1COc1ccc(S(=O)(=O)c2ccc(C)nc2Nc2ccc(S(C)(=O)=O)cc2Cl)cc1` it is 100 to 102 °C; for `CCCCn1c(=O)n(CCCC2CO2)c(=O)c2c1ncn2C` (stereo not given) it is 76 to 78 °C.

`CCOC(=O)c1nnc2n1-c1sc(CC)cc1C(c1ccccc1Cl)=NC2` registered a melting point of 138 to 140 °C. In turn, `Cc1ccc(S(=O)(=O)N2[C@@H](CCc3nnco3)CC[C@H]2c2ccc(F)cc2)cc1` (racemic) showed a melting point of 138 °C.

`CC(C)(C)c1ccc(C(=O)O)c(C(=O)O)c1` had a melting point of 148 to 150 °C. For the compound `COc1cc(Nc2nc3cccc(-c4ccc5[nH]cnc5c4)c3o2)cc(OC)c1OC`, the melting point fell in the range of 150 to 156 °C.

For the compound `CCCCn1c(=O)c2nn(S(=O)(=O)c3c(Cl)cc(Cl)cc3Cl)cc2n(CCCC)c1=O`, the melting point lay in the range of 89 to 92 °C.

Take `CC(C)c1cccc(C(C)C)c1NC(=O)NC(Cc1ccccc1)c1ccccc1` (stereo not given): the melting point lay in the range of 219 to 221 °C. Under `CC1(C)CCC2(Cc3ccc(Cl)cc3)OC12CO` (stereo not given) stands 36 to 38 °C; under `Nc1ccc(C(=O)c2cccnc2)cc1`, 107 °C; under `Cc1oc(-c2ccccc2)nc1COc1ccc(COc2nn(-c3ccccc3)cc2C=O)cc1`, 152 to 153 °C. Under `CC(C)CN1C(=O)c2cnc(-c3ccccc3)nc2N(C(=O)CCl)c2ccccc21` stands 95 to 96 °C; under `CN(C(=O)Nc1nc(OCC(F)(F)F)cc(OCC(F)(F)F)n1)c1ccc(Br)cc1`, 110 to 111 °C. `COc1ccccc1C1(N)C(=O)Nc2ccc(Cl)cc21` (stereo not given): the melting point lay in the range of 220 to 224 °C. The figure for `C=CC1(CC(=O)O)CC(C)(C)CC(C)(C)C1` is 92 to 94 °C; for `N#Cc1ccc(N2C(=O)N(CCCC(=O)O)C3(CCSCC3)C2=O)cc1C(F)(F)F` it is 197 to 198 °C; for `CCCCN1CCC(c2c[nH]c3ccc(NS(C)(=O)=O)cc23)CC1` it is 78 °C. Under `Cc1cc(Cl)c(OCCO)cc1Nc1nnc2n1[C@H](c1ccc(F)cc1)COC2` stands 161 to 162 °C; under `CN1CC[C@@H]2CC(=O)c3cc(F)c(F)cc3[C@@H]2C1` (relative stereo), more than 250 °C; under `Cc1ccc(NCCNS(C)(=O)=O)cc1O`, 145 °C. In turn, `COc1cc(NC(C)=O)c(Cl)c(C(F)(F)F)c1Cl` yielded a melting point of 143 to 144 °C. Take `OC1(c2ccc(Cl)cc2)c2ccc(Cl)cc2-c2ncncc21` (stereo not given): the melting point lay within 194 to 196 °C. The figure for `COc1cc(C(C)=NOCc2ccc3nonc3c2)ccc1F` is 65 °C; for `N#Cc1ccccc1C1=CC2CC(=O)CC2C1` (stereo not given) it is 36 to 37 °C. The figure for `CNC(=O)c1cccc(-c2c(C)cc(C)cc2C)c1` is 143 °C. Under `COCOc1ccc(-c2ccc(-c3ccc(C(=O)O)cc3)cc2-c2ccc3c(c2)C(C)(C)CCC3(C)C)cc1` stands 249 to 251 °C; under `CCc1cc(C(=O)O)c(Nc2ccccc2[N+](=O)[O-])s1`, 189 to 191 °C. `CN(C)CCN1CCC(=Cc2cc(C(C)(C)C)c(O)c(C(C)(C)C)c2)C1=O`: the melting point was 150 °C. Under `COC(=O)C(O)C(CC(C)C)NC(=O)C(Cc1c[nH]cn1)NC(=O)C(CC(=O)NCCc1ccccc1)Cc1cccc2ccccc12` (mixture of isomers) stands 82 to 87 °C.

In turn, `CC(C)(C)OC(=O)C1C(C#CC(=O)O)C1(C)C` (stereo not given) yielded a melting point of 144 °C. Under `OC(CNC1CCc2ccccc2C1)COc1ccc2ccccc2c1` (stereo not given) stands 102 to 115 °C; under `OC1CCCC(c2ccccc2)O1` (stereo not given), 64.5 to 71 °C. With `Cc1nn(-c2ccc(Cl)cc2)c(C)c1C(=O)N[C@H](C)[C@](O)(Cn1cncn1)c1ccc(F)cc1F`, the melting point fell in the range of 144 to 145 °C.

`CSCCC(NC(=O)Nc1cccc(C)c1)C(=O)O` (racemic): the melting point worked out at 143 °C. On to `O=C(O)c1ccc(-c2cc([N+](=O)[O-])ccc2F)cc1`, for which the melting point is more than 280 °C. In the case of `CC(=O)c1ccc2c(c1)C(C(=O)Nc1cccc(C(=O)Nc3ccccc3)c1)C(=O)N2CC(F)(F)F` (stereo not given), the melting point lay in the range of 197 to 203 °C. The figure for `Cc1cc2c([C@@H]3C[C@H]3CNC(=O)C3CC3)cccn2n1` (relative stereo) is 124 to 128 °C. Under `O=C1c2ccc(Cl)cc2C(=O)C(O)(O)C1(O)O` stands 134 to 136 °C. The figure for `COc1ccc2cc(-c3cn([C@H]4CN5CCC4CC5)nn3)ccc2c1` is 186 °C; for `CCOCCOc1ccc(C(=O)CN(Cc2ccccc2)Cc2ccccc2)cc1C(N)=O` it is 128 to 131 °C.

Turning to `CN(C(=O)OC(C)(C)C)[C@H]1CCN(C(=O)c2ccc(-c3[nH]nc4c3C(=O)c3c(NC(=O)NN5CCOCC5)cccc3-4)s2)C1`, the melting point was more than 300 °C. The figure for `CC(C)C(C)(C#N)N1C(=O)c2cccc(Cl)c2C1=O` (stereo not given) is 71 to 72 °C.

For `CNc1ccc(C(=O)c2ccccc2)cc1[N+](=O)[O-]`, the melting point lay within 198 to 201 °C. Under `CCOC(=O)c1ccc(-c2nc(C(=O)OCC)ns2)cc1` stands 66 to 67.5 °C; under `COC(=O)CCC(=O)c1ccc(-c2ccc(C(C)(C)C)cc2)cc1`, 58 to 62 °C; under `NNc1nc2cc(Cl)ccc2nc1Cl`, less than 250 °C. The figure for `COc1ccc(C=C(C)[N+](=O)[O-])c(OC)c1OC` is 57 to 58 °C; for `O=C1Cc2c(cccc2-c2ccccc2)N1` it is 192 to 194 °C; for `CSC(=C(C#N)C#N)N(C)N=Cc1ccccc1` it is 159 to 160 °C. `CCOC(=O)C1=C(C)NC(C(OC)OC)=C(C(=O)OC)C1c1ccccc1[N+](=O)[O-]` (stereo not given) registered a melting point of 122 to 124 °C.

The compound `Cc1ccc(-c2cn3cc(C(F)(F)F)ccc3n2)cc1` registered a melting point of 187 to 188 °C. Under `COc1ccc(/C=C(\C#N)c2ccc(C(F)(F)F)cc2)cc1OC1CCCC1` stands 96 to 99 °C; under `O=c1c2ccc(F)cc2oc2ccc(C(F)(F)F)cc12`, 140 to 142 °C; under `COc1cc2c(N)nc(N3CCN(c4nc5cccccc-5n4)CC3)nc2c(OC)c1OC`, 284 to 285 °C. Consider `CCCCCCCC(CC(=O)OO)CC(=O)OO`, for which the melting point lay in the range of 19 to 22 °C. The figure for `CC1=CC(N(C)Cc2ccccc2)C(O)C(C)(C)CC1=O` (stereo not given) is 78.5 to 80 °C.

Compound `CC1(C)CN(c2ncc(C(=O)O)c(N)n2)C(=O)N1` gave a melting point of 290 to 291 °C. As for `C/C(=C\CC1OC(=O)NC1=O)c1cccc(Cc2nc(-c3ccccc3)oc2C)c1` (stereo not given), the melting point was 138 to 139 °C.

Take `CCn1ncc(N=O)c1N`: the melting point lay in the range of 135 to 136 °C. In the case of `Cc1ccc(CN2C(=O)C(CCO)Oc3ccccc32)cc1` (stereo not given), the melting point fell in the range of 92 to 94 °C.

The values above are taken from a melting point compilation (Tetko et al.; mined from patent text by program, amines drawn as free bases though some values may be those of a salt).
